# Measurements taken from patent publication US12540115B2, “Inhibitors of phospholipid synthesis and methods of use” (priority 2019, dated 2026).
# Tests used:
# [1] = tested on: mouse hepatocellular carcinoma lines; experiment: Cancer cell proliferation, MTT assay on mouse hepatocellular carcinoma lines; type: cell-based; details: treated 1-3 days, dosage range 1 mM to 0.1 nM; vs untreated (DMSO)
# Method: (§1) FIG. 1-26 illustrate various exemplary GPAT inhibitors that suppress cancer cell proliferation. With reference to FIG. 1-26: BCL stands for Burkitt lymphoma line, all experiments on BCL were done using trypan blue and cell counts. Cells are treated 1-3 days with dosage range 1 mM to 0.1 nM. RCC stands for renal cell carcinoma, all experiments on RCC were in vivo experiments. Tumors are treated with dosage range 0.1 mg/kg to 100 mg/kg for X days, wherein X ranges from 7 to 30 days. All experiments are done in MTT assay on mouse hepatocellular carcinoma lines that are treated 1-3 days with the dosage range from 1 mM to 0.1 nM. The bar in each of FIGS. 1-26 entitled “Untreated” refers to a sample without an exemplary GPAT inhibitor compound, diluted in DMSO solvent.
# Burkitt lymphoma line = Burkitt lymphoma line proliferation, trypan blue and cell counts; type: cell-based; details: treated 1-3 days, dosage range 1 mM to 0.1 nM
# Method: as §1
# renal cell carcinoma = experiment: Renal cell carcinoma (RCC) in vivo tumor experiments; design: species or system mice; details: dosage range 0.1 mg/kg to 100 mg/kg for 7 to 30 days
# Method: as §1
# MYC RCC mice were generated by crossing FVB/N-Tg(tetO-MYC)28aBop/J mice for MYC with Tg(Ggt1-tTA) #Agoc or (GGT-tTA) for kidney specificity. MYC HCC mice were generated by crossing FVB/N-Tg(tetO-MYC)28aBop/J mice for MYC with Tg(Cebpb-tTA)5Bjd or (LAP-tTA) for liver specificity. All parental lines had undergone at least 10 generations of backcrossing. MYC RCC and MYC HCC mice were bred on doxycycline until 4 weeks of age, when doxycycline was replaced with water for at least 2 weeks for tumorigenesis depending on the experiment described in the patent. […]
# MYC-induced tumors = experiment: FSG67 in MYC-induced tumors, xenograft and primary mouse models; type: in vivo
# From the text: We present a comprehensive overview of how the MYC oncogene controls lipogenesis to promote tumorigenesis. We find that MYC globally regulates the expression of key genes and their resulting proteins and metabolites in lipogenesis for human and murine cell lines as well as for transgenic mouse models. […] Desorption electrospray ionization mass spectrometric imaging (DESI-MSI) from tissue samples of several conditional transgenic mouse models identified in vivo metabolic changes in simple fatty acids and in complex phospholipids induced by MYC. […] Strong correlation between these in situ changes and elevation of gene expressions of cytidinediphosphate diacylglycerol pathway genes as well as fatty acid elongase genes were found. By administering FSG67, which inhibits GPAT, MYC-induced tumorigenesis was blocked, metabolic changes were suppressed, and tumors regressed in xenograft and primary mouse models.
# [2] = biological target: glycerol 3-phosphate acyltransferase (GPAT); details: read-out: IC50, inhibitor of glycerol 3-phosphate acyltransferase (GPAT); cited from earlier work
# diet-induced obese mice = details: cited from earlier work
Structure (SMILES),cancer cell proliferation [1],further results
CCCCCCCCCS(=O)(=O)Nc1ccccc1C(=O)O [BTX 100],suppresses cancer cell proliferation,
CC(C)CS(=O)(=O)Nc1ccccc1C(=O)O [BTX 106],,Burkitt lymphoma cell proliferation (Burkitt lymphoma line): suppresses Burkitt lymphoma cell proliferation
CCOCCS(=O)(=O)Nc1ccccc1C(=O)O [BTX 108],suppresses cancer cell proliferation,
CC(C)S(=O)(=O)Nc1ccccc1C(=O)O [BTX 205],,renal cell carcinoma cell proliferation (renal cell carcinoma): suppresses renal cell carcinoma cell proliferation
CS(=O)(=O)Nc1ccccc1-c1nnn[nH]1 [BTX 281],suppresses cancer cell proliferation,
CS(=O)(=O)Nc1ccccc1C(=O)O [BTX 601],suppresses cancer cell proliferation,
CS(=O)(=O)Nc1ccccc1C#N [BTX 671],suppresses cancer cell proliferation,
CS(=O)(=O)Nc1ccccc1CO [BTX 931],,Burkitt lymphoma cell proliferation (Burkitt lymphoma line): suppresses Burkitt lymphoma cell proliferation
CCCCS(=O)(=O)Nc1ccccc1-c1nnn[nH]1 [BTX 982],,Burkitt lymphoma cell proliferation (Burkitt lymphoma line): suppresses Burkitt lymphoma cell proliferation
O=C(O)c1ccccc1NS(=O)(=O)Cc1ccccc1 [BTX 1010],suppresses cancer cell proliferation,
CCCCCCCCCS(=O)(=O)Nc1ccccc1F [BTX 1101],suppresses cancer cell proliferation,
CCCCCCCCCS(=O)(=O)Nc1ccccc1Cl [BTX 2111],suppresses cancer cell proliferation,
CCCCCCCCCS(=O)(=O)Nc1ccccc1Br [BTX 2121],suppresses cancer cell proliferation,
CCCCCCCCCS(=O)(=O)N1C(=O)OCc2ccccc21 [BTX 2191],suppresses cancer cell proliferation,
CCCCCCCCCS(=O)(=O)Nc1ccccc1S(C)(=O)=O [BTX 4171],suppresses cancer cell proliferation,
CCCCCCCCCS(=O)(=O)Nc1ccccc1S(N)(=O)=O [BTX 8151],,Burkitt lymphoma cell proliferation (Burkitt lymphoma line): suppresses Burkitt lymphoma cell proliferation
CCCCCCCCCS(=O)(=O)Nc1ccccc1C(=O)NS(=O)(=O)C(F)(F)F [BTX 9141],,Burkitt lymphoma cell proliferation (Burkitt lymphoma line): suppresses Burkitt lymphoma cell proliferation
CCCCCCCCCNS(=O)(=O)c1ccccc1C(=O)O [BTX 9161],suppresses cancer cell proliferation,
CCCCCCCCCN1C(=N)c2ccccc2S1(=O)=O [BTX 19102],suppresses cancer cell proliferation,
CCCCCCCCCS(=O)(=O)Nc1ccccc1CO [BTX 83009],suppresses cancer cell proliferation,
NC1=NS(=O)(=O)c2ccccc21 [BTX 291002],suppresses cancer cell proliferation,
N#Cc1ccccc1S(N)(=O)=O [BTX 491001],suppresses cancer cell proliferation,
"CCCCCCCCCS(=O)(=O)Nc1ccccc1C(=O)O [FSG67, 2-(Nonylsulfonamido)benzoic acid]",,MYC-induced tumorigenesis (MYC-induced tumors): blocked; metabolic changes (MYC-induced tumors): suppressed; tumors (regression) (MYC-induced tumors): regressed; IC50 [2]: 24 µM; body weight and adiposity (diet-induced obese mice): decrease body weight and adiposity; energy utilization as fatty acid oxidation (diet-induced obese mice): enhance energy utilization as fatty acid oxidation; food intake (diet-induced obese mice): reduce food intake; hepatic steatosis (diet-induced obese mice): reverse hepatic steatosis; insulin sensitivity (diet-induced obese mice): enhance insulin sensitivity
